“And” between values parts separate entries of the source, which are not always exact repeats. Identical values can stand only once. Like-named read-outs stand apart in the source and are kept apart here.
What was measured:
[1] = biological target: T1, CYP1A2 (Homo sapiens, UniProt P05177); assay: In vitro drug-drug interaction study, human liver microsomes; assay type: in vitro ADME
T1 construct: In an in vitro study using human liver microsomes; from tissue; host or cells: human liver microsomes
T1 sequence (P05177 1-516): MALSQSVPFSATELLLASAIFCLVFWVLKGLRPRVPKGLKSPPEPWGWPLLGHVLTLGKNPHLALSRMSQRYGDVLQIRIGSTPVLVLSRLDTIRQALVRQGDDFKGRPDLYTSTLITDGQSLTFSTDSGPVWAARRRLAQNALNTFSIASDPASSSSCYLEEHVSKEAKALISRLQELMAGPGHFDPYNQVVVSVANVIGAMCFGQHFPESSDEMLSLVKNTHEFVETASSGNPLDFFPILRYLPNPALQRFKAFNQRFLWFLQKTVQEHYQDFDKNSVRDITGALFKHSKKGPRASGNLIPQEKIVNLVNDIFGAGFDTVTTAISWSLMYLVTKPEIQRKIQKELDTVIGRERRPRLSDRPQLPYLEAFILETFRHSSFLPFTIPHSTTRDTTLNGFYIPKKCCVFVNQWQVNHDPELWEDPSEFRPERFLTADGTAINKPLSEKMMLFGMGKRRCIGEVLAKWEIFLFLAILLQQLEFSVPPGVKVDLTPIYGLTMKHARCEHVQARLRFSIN

[2] = system: dogs; assay: 26-week and 52-week oral toxicity studies (renal toxicity); assay type: in vivo; details: oral 60 mg/kg/day (about 1.1 times the human dose) or higher
Excerpt: (§1) Animal studies with mesalamine (13-week and 26-week oral toxicity studies in rats, and 26-week and 52-week oral toxicity studies in dogs) have shown the kidney to be the major target organ of mesalamine toxicity.

[3] = biological target: CYP2D6 (Homo sapiens, UniProt P10635); assay: In vitro drug-drug interaction study, human liver microsomes; assay type: in vitro ADME
CYP2D6, sequence (P10635 whole entry): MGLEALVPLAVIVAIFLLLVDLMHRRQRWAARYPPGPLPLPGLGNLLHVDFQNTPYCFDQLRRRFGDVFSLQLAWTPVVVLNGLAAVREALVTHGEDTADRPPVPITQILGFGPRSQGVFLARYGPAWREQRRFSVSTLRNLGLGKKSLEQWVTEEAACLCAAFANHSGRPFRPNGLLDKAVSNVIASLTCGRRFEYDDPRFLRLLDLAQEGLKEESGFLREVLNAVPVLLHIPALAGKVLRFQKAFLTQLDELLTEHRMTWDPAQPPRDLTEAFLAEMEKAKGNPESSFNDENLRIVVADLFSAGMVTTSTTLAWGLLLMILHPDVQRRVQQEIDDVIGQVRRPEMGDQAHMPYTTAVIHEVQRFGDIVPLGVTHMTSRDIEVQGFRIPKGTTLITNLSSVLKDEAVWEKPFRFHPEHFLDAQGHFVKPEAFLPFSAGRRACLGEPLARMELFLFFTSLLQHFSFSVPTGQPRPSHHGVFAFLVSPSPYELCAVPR

[4] = human, in vivo, 1600 mg
[5] = clinical; details: human, in vivo
[6] = Ames test; assay type: cell-based
Protocol: (§2) These doses are about 2.6 and 5.4 times the recommended human dose of granulated mesalamine capsules of 1.5 g/day (30 mg/kg if 50 kg body weight assumed or 1110 mg/m^2), respectively, based on body surface area. Mesalamine was negative in the Ames test, the mouse lymphoma cell (L5178Y/TK+/−) forward mutation test, the sister chromatid exchange assay in the Chinese hamster bone marrow test, and the mouse bone marrow micronucleus test.

[7] = system: mice; details: mouse, in vivo
[8] = system: mice; assay: Dietary carcinogenicity study; assay type: in vivo; details: 2000 mg/kg/day
Protocol: as §2

[9] = system: rats; assay: Dietary carcinogenicity study; assay type: in vivo; details: doses as high as 480 mg/kg/day
Protocol: as §2

[10] = Single and multiple oral dose pharmacokinetics of 1.5 g granulated mesalamine formulation, crossover, healthy subjects, fasting; details: single dose 1.5 g; harmonic mean (pseudo SD)
[11] = clinical; details: human, in vivo, 1600 mg
[12] = Detection in human breast milk; details: in vivo
[13] = system: Chinese hamster bone marrow; assay: Sister chromatid exchange assay in the Chinese hamster bone marrow test; details: in vivo
Protocol: as §2

[14] = biological target: CYP2C19 (Homo sapiens, UniProt P33261); assay: In vitro drug-drug interaction study, human liver microsomes; assay type: in vitro ADME
CYP2C19, sequence (P33261 whole entry): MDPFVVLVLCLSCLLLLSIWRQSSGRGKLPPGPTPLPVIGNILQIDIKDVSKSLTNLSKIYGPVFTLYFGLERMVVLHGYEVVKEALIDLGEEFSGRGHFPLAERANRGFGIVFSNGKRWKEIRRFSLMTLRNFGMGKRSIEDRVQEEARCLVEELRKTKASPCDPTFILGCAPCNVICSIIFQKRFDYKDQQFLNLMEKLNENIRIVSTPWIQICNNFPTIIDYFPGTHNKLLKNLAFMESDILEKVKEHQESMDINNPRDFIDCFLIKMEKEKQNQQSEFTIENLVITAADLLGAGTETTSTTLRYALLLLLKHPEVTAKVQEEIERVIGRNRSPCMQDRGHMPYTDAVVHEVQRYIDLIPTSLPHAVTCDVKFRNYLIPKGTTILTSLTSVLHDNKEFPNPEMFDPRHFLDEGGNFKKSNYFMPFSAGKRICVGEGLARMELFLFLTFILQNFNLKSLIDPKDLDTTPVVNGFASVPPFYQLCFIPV

[15] = system: mouse lymphoma cell (L5178Y/TK+/−); assay: Mouse lymphoma cell forward mutation test; assay type: cell-based
Protocol: as §2

[16] = system: rats; assay: Reproduction studies; details: rat, in vivo
[17] = system: rats; details: rat, in vivo
[18] = biological target: CYP3A4 (Homo sapiens, UniProt P08684); assay: In vitro drug-drug interaction study, human liver microsomes; assay type: in vitro ADME
CYP3A4, sequence (P08684 whole entry): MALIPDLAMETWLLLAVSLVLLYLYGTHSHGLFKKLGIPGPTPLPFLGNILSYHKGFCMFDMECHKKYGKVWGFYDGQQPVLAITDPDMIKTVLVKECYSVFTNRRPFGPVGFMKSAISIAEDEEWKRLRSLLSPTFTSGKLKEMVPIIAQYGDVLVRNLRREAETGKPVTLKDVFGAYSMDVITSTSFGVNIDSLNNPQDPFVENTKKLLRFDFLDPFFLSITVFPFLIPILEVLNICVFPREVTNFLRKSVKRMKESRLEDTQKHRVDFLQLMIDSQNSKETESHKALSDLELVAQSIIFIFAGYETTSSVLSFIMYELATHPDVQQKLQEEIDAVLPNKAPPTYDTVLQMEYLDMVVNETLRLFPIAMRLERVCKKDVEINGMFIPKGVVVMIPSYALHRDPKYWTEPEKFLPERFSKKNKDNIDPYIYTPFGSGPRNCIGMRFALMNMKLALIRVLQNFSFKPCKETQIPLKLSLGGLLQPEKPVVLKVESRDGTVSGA

[19] = system: rats; assay: Fertility and reproductive performance study; assay type: in vivo; details: oral doses up to 320 mg/kg
[20] = system: rats; assay: 13-week and 26-week oral toxicity studies (renal toxicity); assay type: in vivo
Excerpt: as §1

[21] = Effect of high fat meal on absorption of 1.6 g mesalamine granules in sachet, crossover, healthy subjects; assay type: in vivo, human; details: for Effect of high fat meal on plasma Cmax: fed vs fasted, 80%:125% rule
[22] = Steady state pharmacokinetics, 3 treatments of 4 days: Asacol 800 mg BID, granulated mesalamine formulation 800 mg BID and 1600 mg QD; assay type: in vivo, human; details: for Tmax: median (range); for AUC: read-out: AUC
Protocol: In a study of 3 treatments in 3 study periods, each separated by a minimum washout of 7 days, treatments were administered orally, and were as follows:
Subjects received treatments A, B, and C, with each administered during one of the three 4-day study treatment periods.
Each treatment regimen lasted for 4 days and was followed by at least a 7 day washout period.

[23] = biological target: CYP2C9 (Homo sapiens, UniProt P11712); assay: In vitro drug-drug interaction study, human liver microsomes; assay type: in vitro ADME
CYP2C9, sequence (P11712 whole entry): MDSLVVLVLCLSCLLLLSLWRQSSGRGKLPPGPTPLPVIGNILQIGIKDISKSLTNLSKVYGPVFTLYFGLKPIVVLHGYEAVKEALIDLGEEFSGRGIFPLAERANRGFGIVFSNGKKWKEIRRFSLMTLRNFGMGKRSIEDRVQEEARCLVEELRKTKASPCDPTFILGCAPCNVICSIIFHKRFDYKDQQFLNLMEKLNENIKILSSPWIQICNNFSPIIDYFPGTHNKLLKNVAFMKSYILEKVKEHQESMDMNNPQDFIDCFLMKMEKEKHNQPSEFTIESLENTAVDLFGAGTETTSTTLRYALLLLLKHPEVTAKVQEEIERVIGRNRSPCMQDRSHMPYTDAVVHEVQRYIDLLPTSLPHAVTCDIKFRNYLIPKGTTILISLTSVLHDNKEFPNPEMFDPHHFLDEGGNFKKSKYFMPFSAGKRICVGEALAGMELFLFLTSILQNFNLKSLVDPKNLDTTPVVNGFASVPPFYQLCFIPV

[24] = In vitro plasma protein binding
[25] = human, in vivo
[26] = system: rabbits; assay: Reproduction studies; details: rabbit, in vivo

For `Nc1ccc(O)c(C(=O)O)c1` [Mesalamine (5-ASA), 5-aminosalicylic acid], the “Inhibition of CYP1A2” value [1] was “not to inhibit”, the Renal finding [2] was “renal lesions including tubular atrophy, interstitial cell infiltration, chronic nephritis, and papillary necrosis” and the “Inhibition of CYP2D6” value [3] was “not to inhibit”. It also gave a T1/2 [4] of 5.49 h, an AUC(0-inf) [5] of 14000 ± 5000 ng·h/mL and an AUC(0-t) ([5]; AUC0-24) of 11000 ± 5000 ng·h/mL. The Cmax ([5]; Cmax) was 2100 ± 1100 ng/mL, the Tmax ([5]; Tmax) was 4 h and the Ames test result [6] was “negative”. For the same molecule, the “Lethal single oral dose” value [7] was 800 mg/kg, the Carcinogenicity [8] was “not carcinogenic” and the Carcinogenicity [9] was “not carcinogenic”. The t1/2 [10] was 9 ± 7 h, the half-life [11] was 5.49 h and the “Concentration detected in human breast milk” value [12] was “low concentrations”. The “Sister chromatid exchange assay result” value [13] was “negative”, the “Inhibition of CYP2C19” value [14] was “not to inhibit” and the “Forward mutation test result” value [15] was “negative”. For the same molecule, the Reproduction study finding [16] was “no evidence of impaired fertility or harm to the fetus”, the “Lethal single oral dose” value [17] was 1800 mg/kg and the “Inhibition of CYP3A4” value [18] was “not to inhibit”. For the same molecule, the “Effect on fertility or reproductive performance” value [19] was “no effect”, the Renal finding ([20]; oral 40 mg/kg/day (about 0.20 times the human dose)) was “minimal to slight tubular injury” and the Renal finding ([20]; oral 160 mg/kg/day (about 0.90 times the human dose) or higher) was “renal lesions including tubular degeneration, tubular mineralization, and papillary necrosis”. For the same molecule, the “Increase in AUC0-inf following a high-fat meal” value ([21]; 1.6 g granulated mesalamine) was 11%, the “Increase in AUC0-last following a high-fat meal” value ([21]; 1.6 g granulated mesalamine) was 16% and the “Tmax following a high-fat meal” value ([21]; 1.6 g granulated mesalamine (2×0.8 g)) was “prolonged”. For the same molecule, the “Increase in cumulative urinary excretion with a high fat meal” value ([21]; 1.6 g granules) was 27%, the “Effect of high fat meal on plasma Cmax” value ([21]; 1.6 g granules, listed as 5-ASA) was “did not affect” and the “Effect of high fat meal on plasma Cmax” value ([21]; 1.6 g granules, listed as mesalamine) was “equivalent”. For the same molecule, the Tmax ([22]; Day 4, after Asacol 800 mg BID) was 16.0 (0, 24.0) h and 16.0 (0, 24.0)^e h, the “Steady state plasma concentrations as measured by Cmax, QD compared to BID” value ([22]; granulated mesalamine formulation) was “higher” and the “Systemic exposure, QD versus BID regimen” value ([22]; granulated mesalamine formulation 1600 mg QD vs 800 mg BID) was “comparable”. The “Time to maximum drug concentrations, mean” value ([22]; granulated mesalamine formulation administered BID) was 11.00 h, the “Time to maximum drug concentrations, mean” value ([22]; granulated mesalamine formulation administered QD) was 3.96 h and the AUC ([22]; human, plasma, oral, 800 mg, AUCC, Day 4, after Asacol 800 mg BID, converted from μmol * h/L) was 8.34 ± 7.5 ng·h/mL. For the same molecule, the AUC ([22]; human, plasma, oral, 800 mg, AUCC, Day 4, after MP 800 mg BID, converted from μmol * h/L) was 14800 ± 5500 ng·h/mL, the AUC ([22]; human, plasma, oral, 800 mg, AUCC, Day 4, after Treatment A Asacol 800 mg BID, mean ± SD) was 54.5 ± 49 µM·h and the AUC ([22]; human, plasma, oral, 800 mg, AUCC, Day 4, after Treatment B MP 800 mg BID, mean ± SD) was 97 ± 35.9 µM·h. For the same molecule, the Cmax ([22]; human, plasma, oral, 800 mg, Day 4, after Asacol 800 mg BID, converted from μmol/L, mean ± SD) was 1060 ± 1370 ng/mL, the Cmax ([22]; human, plasma, oral, 800 mg, Day 4, after MP 800 mg BID, converted from μmol/L, mean ± SD) was 1820 ± 710 ng/mL and the Cmax ([22]; human, plasma, oral, 800 mg, plasma, Day 4, after Treatment A Asacol 800 mg BID, n = 28, mean ± SD) was 6.93 ± 8.99 µM. It also gave a Cmax ([22]; human, plasma, oral, 800 mg, plasma, Day 4, after Treatment B MP 800 mg BID, n = 28, mean ± SD) of 11.9 ± 4.65 µM, an AUC ([22]; human, plasma, oral, 1600 mg, AUC0-24, Day 4, after MP 1600 mg QD, converted from μmol * h/L) of 14800 ± 6490 ng·h/mL and an AUC ([22]; human, plasma, oral, 1600 mg, AUC0-24, Day 4, after Treatment C MP 1600 mg QD, mean ± SD) of 96.5 ± 42.4 µM·h. For the same molecule, the Cmax ([22]; human, plasma, oral, 1600 mg, Day 4, after MP 1600 mg QD, converted from μmol/L, mean ± SD) was 3040 ± 1670 ng/mL, the Cmax ([22]; human, plasma, oral, 1600 mg, plasma, Day 4, after Treatment C MP 1600 mg QD, n = 28, mean ± SD) was 19.9 ± 10.9 µM and the Tmax ([22]; human, plasma, oral, Day 4, after MP 800 mg BID, time from first dose, read-out: Tmax) was 16 h. The Tmax ([22]; human, plasma, oral, Day 4, after MP 1600 mg QD, read-out: Tmax) was 3 h, the “Inhibition of CYP2C9” value [23] was “not to inhibit” and the fraction unbound at 2.5 μg/mL [24] was 0.57. The “Increase in systemic exposure (AUC0-24) at steady state compared with a single dose” value [25] was 1.5 fold and the Reproduction study finding [26] was “no evidence of impaired fertility or harm to the fetus”.

Reference: US8865688B2, “Compositions and methods for treatment of bowel diseases with granulated mesalamine” (priority 2008, dated 2014)
